# Key:
# Assay type in all cases: cell-based
# [1] = molecular target: T1, Peroxisome proliferator-activated receptor alpha (Homo sapiens, UniProt Q07869); test: Agonist activity at GAL4-fused human PPAR-alpha transfected in African green monkey COS7 cells assessed transcriptional activation incubated for 16 hrs by Luciferase assay
# T1 sequence (Q07869 whole entry): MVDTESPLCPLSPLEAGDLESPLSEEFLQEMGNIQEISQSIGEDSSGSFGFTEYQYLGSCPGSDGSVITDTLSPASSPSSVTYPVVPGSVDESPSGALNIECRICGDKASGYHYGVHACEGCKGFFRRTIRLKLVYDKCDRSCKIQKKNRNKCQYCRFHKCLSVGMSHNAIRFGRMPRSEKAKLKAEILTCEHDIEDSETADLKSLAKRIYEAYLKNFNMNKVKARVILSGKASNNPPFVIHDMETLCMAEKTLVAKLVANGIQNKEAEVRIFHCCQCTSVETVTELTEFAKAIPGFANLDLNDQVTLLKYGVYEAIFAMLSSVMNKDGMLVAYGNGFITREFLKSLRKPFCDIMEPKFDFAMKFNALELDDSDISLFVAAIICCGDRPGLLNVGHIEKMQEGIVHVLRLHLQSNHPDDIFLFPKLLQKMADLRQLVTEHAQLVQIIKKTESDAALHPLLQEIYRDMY
# [2] = molecular target: T2, Peroxisome proliferator-activated receptor delta (Homo sapiens, UniProt Q03181); test: Agonist activity at GAL4-fused human PPAR-delta transfected in African green monkey COS7 cells assessed transcriptional activation incubated for 16 hrs by Luciferase assay
# T2 sequence (Q03181 whole entry): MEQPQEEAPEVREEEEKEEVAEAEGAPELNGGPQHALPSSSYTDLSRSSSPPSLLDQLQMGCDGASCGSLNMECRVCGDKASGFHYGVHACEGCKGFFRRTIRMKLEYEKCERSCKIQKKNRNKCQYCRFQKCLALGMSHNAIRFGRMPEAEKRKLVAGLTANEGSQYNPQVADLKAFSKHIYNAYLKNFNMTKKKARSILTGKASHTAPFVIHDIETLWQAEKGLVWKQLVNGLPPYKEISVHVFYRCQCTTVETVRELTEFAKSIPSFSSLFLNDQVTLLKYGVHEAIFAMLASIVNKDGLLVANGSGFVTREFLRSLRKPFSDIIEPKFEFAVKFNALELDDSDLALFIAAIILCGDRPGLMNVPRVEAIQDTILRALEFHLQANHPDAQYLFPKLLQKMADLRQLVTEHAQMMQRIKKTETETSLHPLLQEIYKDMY
# [3] = molecular target: T3, Peroxisome proliferator-activated receptor gamma (Homo sapiens, UniProt P37231); test: Agonist activity at GAL4-fused human PPAR-gamma transfected in African green monkey COS7 cells assessed transcriptional activation incubated for 16 hrs by Luciferase assay
# T3 sequence (P37231 whole entry): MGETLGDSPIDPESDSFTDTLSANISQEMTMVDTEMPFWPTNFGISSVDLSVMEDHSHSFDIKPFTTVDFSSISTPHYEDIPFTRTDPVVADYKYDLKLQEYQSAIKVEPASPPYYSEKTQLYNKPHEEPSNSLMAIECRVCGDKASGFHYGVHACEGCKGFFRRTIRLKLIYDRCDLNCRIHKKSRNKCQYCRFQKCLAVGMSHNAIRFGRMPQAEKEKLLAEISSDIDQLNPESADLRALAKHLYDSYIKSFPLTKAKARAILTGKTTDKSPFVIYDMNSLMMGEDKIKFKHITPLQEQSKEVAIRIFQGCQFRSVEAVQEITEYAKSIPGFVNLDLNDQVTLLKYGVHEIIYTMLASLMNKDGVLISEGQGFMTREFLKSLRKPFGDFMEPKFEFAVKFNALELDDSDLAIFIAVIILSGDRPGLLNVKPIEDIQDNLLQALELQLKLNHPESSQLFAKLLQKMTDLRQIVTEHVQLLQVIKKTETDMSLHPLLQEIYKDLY
structure (smiles),measurement,setting,value
Cc1cc(Cn2ncn(-c3ccc(OC(F)(F)F)cc3)c2=O)cc(C)c1OC(C)(C)C(=O)O,EC50,[1],8.5 nM
Cc1cc(CN2CCN(c3ccc(F)cc3)C2=O)cc(C)c1OC(C)(C)C(=O)O,EC50,[1],89.5 nM
same,EC50,[2],39 nM
same,EC50,[3],2130 nM
Cc1cc(CN2CCN(c3cccc(C(F)(F)F)c3)C2=O)cc(C)c1OC(C)(C)C(=O)O,EC50,[1],14.2 nM
same,EC50,[2],40.9 nM
same,EC50,[3],884 nM
CCc1ccc(N2CCN(Cc3cc(C)c(OC(C)(C)C(=O)O)c(C)c3)C2=O)cc1,EC50,[1],7.3 nM
same,EC50,[3],1290 nM
CC(C)(Oc1ccc(CN2CCN(c3ccc(C(F)(F)F)cc3)C2=O)cc1)C(=O)O,EC50,[3],> 5000 nM
COc1ccc(N2CCN(Cc3cc(C)c(OC(C)(C)C(=O)O)c(C)c3)C2=O)cc1,EC50,[1],121 nM
same,EC50,[2],263 nM
same,EC50,[3],2580 nM
Cc1cc(CN2CCN(c3ccc(Cl)cc3)C2=O)cc(C)c1OC(C)(C)C(=O)O,EC50,[1],1020 nM
Cc1cc(CN2CCN(c3ccccc3C(F)(F)F)C2=O)cc(C)c1OC(C)(C)C(=O)O,EC50,[1],> 5000 nM
same,EC50,[2],> 5000 nM
Cc1cc(CN2CCN(c3ccc(OC(F)(F)F)cc3)C2=O)cc(C)c1OC(C)(C)C(=O)O,EC50,[1],4.7 nM
same,EC50,[2],36.9 nM
same,EC50,[3],416 nM
Cc1cc(CN2CCN(c3ccc(C(C)C)cc3)C2=O)cc(C)c1OC(C)(C)C(=O)O,EC50,[2],69.6 nM
Cc1ccc(N2CCN(Cc3cc(C)c(OC(C)(C)C(=O)O)c(C)c3)C2=O)cc1,EC50,[1],40.4 nM
same,EC50,[3],1200 nM
Cc1cc(CN2CCN(c3ccccc3)C2=O)cc(C)c1OC(C)(C)C(=O)O,EC50,[1],436 nM
same,EC50,[2],260 nM
Cc1cc(CN2CCN(c3ccc(C(C)(C)C)cc3)C2=O)cc(C)c1OC(C)(C)C(=O)O,EC50,[2],> 5000 nM
Cc1cc(CN2CCN(c3ccc(C(F)(F)F)cc3)C2=O)ccc1OC(C)(C)C(=O)O,EC50,[1],175 nM
same,EC50,[3],> 5000 nM
CSc1ccc(C(=O)/C=C/c2cc(C)c(OC(C)(C)C(=O)O)c(C)c2)cc1 [ELAFIBRANOR],EC50,[1],888 nM
same,EC50,[3],1570 nM

# — ChEMBL document CHEMBL6153078, “Design, synthesis, and biological evaluation of imidazolidinone derivatives as potent PPARα/δ agonists for the treatment of cholestatic liver diseases” (Eur J Med Chem, 2025)
